What was measured:
[1] = target: T1, human serotonin 5-HT2A receptor (Homo sapiens, UniProt P28223); assay: Radioligand binding ([3H]-ketanserin) to membranes of HEK-293 EBNA cells expressing human 5-HT2A receptor; conditions: 1.1 nM [3H]-ketanserin, HEK-293 EBNA membranes, 1 h at RT
T1 construct: expressed in transfected cells; host or cells: HEK-293 EBNA cells, transient transfection; membrane preparation
Description: (§1) The ability of the compounds to bind to the 5-HT2A, D3 and D2 receptors was determined using radioligand binding to cloned receptors selectively expressed in HEK-293 EBNA cells.
(§2) Membrane Preparation for Human D2, Human D3 and Human 5-HT2A Receptors
(§3) HEK-293 EBNA cells were transiently transfected with expression plasmids encoding for the human D2 or D3 dopamine- or for the human 5-HT2A serotonin receptor, respectively. The cells were harvested 48 h post-transfection, washed three times with cold PBS and stored at −80° C. prior to use. The pellet was suspended in cold 50 mM Tris-HCl buffer containing 10 mM EDTA (pH 7.4) and homogenized with a Polytron (Kinematica AG, Basel, Switzerland) for 20-30 sec at 12.000 rpm. After centrifugation at 48.000×g for 30 min at 4° C., the pellet was resuspended in cold 10 mM Tris-HCl buffer containing 0.1 mM EDTA (pH 7.4), homogenized, and centrifuged as above. This pellet was further resuspended in a smaller volume of ice cold 10 mM Tris-HCl buffer containing 0.1 mM EDTA (pH 7.4) and homogenized with a Polytron for 20-30 sec at 12.000 rpm. The protein content of this homogenate was determined with the Bio-Rad (Bradford) Protein Assay (Biorad Laboratories GmbH, München, Germany) according to the instructions of the manufacturer using gamma globulin as the standard. This homogenate was stored at −80° C. in aliquots and thawed immediately prior to use.
(§4) Radioligand Binding Assay Conditions
(§5) Aliquots of membrane preparations were thawed at RT, resupended in assay buffer (D2, D3: 50 mM Tris-HCl, 120 mM NaCl, 5 mM MgCl2, 1 mM EDTA, 5 mM KCl, 1.5 mM CaCl2, pH=7.4; 5-HT2A: 50 mM Tris-HCl, 10 mM MgCl2, 1 mM EGTA, pH=7.4), homogenized with a Polytron for 20-30 sec at 12.000 rpm and adjusted to a final concentration of approximately 7.5 μg protein/well (D2, D3) and 15 μg protein/well (5-HT2A), respectively.
(§6) The binding affinity (Ki) of the compounds was determined using radioligand binding. Membranes were incubated in a total volume of 200 μl with a fixed concentration of radioligand (final concentration approximately 0.7 nM [^3H]-spiperone for D2, 0.5 nM [^3H]-spiperone for D3, and 1.1 nM [^3H]-ketanserin for 5-HT2A) and ten concentrations of test compound in ranging between 10 μM-0.1 nM for 1 h at RT. At the end of the incubation, the reaction mixtures were filtered on to unifilter 96-well white microplates with bonded GF/C filters (Packard BioScience, Zurich, Switzerland; preincubated for 1 h in 0.1% polyethylenimine (PEI) in assay buffer) with a Filtermate 196 harvester (Packard BioScience) and washed 3 times with cold assay buffer. The nonspecific binding was determined with equally composed reaction mixtures in the presence of 10 μM unlabelled spiperone. Per well 45 μl of Microscint 40 (Perkin Elmer, Schwerzenbach, Switzerland) was added, plates for sealed, shaken for 20 min and counted for 3 min on a Topcount Microplate Scintillation Counter (Canberra Packard SA, Zurich, Switzerland) with quenching correction.
(§7) The CPM value for each duplicate of a concentration of competing compound was averaged (y1), then the % specific binding was calculated according to the equation (((y1−non-specific)/(total binding-non-specific))×100). Graphs were plotted with the % specific binding using XLfit, a curve fitting program that iteratively plots the data using Levenburg Marquardt algorithm. The single site competition analysis equation used was y=A+((B−A)/(1+((x/C)^D))), where y is the % specific binding, A is the minimum y, B is the maximum y, C is the IC50, x is the log10 of the concentration of the competing compound and D is the slope of the curve (the Hill Coefficient). From these curves the IC50 (inhibition concentration at which 50% specific binding of the radioligand was displaced) and Hill coefficient were determined. […]

[2] = target: T2, human dopamine D3 receptor (Homo sapiens, UniProt P35462); assay: Radioligand binding ([3H]-spiperone) to membranes of HEK-293 EBNA cells expressing human D3 receptor; conditions: human D3, 0.5 nM [3H]-spiperone, HEK-293 EBNA membranes, 1 h at RT
T2 construct: expressed in transfected cells; host or cells: HEK-293 EBNA cells, transient transfection; membrane preparation
T2 sequence (P35462 whole entry): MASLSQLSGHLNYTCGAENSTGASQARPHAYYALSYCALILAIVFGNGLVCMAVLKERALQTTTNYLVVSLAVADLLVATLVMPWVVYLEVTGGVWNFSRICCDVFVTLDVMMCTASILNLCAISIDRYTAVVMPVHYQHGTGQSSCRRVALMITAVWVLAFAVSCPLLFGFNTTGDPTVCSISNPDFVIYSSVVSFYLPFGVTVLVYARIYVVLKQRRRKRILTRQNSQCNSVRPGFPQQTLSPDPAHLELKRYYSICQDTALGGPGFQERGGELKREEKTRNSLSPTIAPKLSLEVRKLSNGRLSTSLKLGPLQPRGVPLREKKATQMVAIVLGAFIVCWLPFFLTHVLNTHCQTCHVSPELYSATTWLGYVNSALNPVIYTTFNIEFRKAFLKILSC
Description: as §1, §2, §3, §4, §5, §6, §7

[3] = target: T3, human dopamine D2 receptor (Homo sapiens, UniProt P14416); assay: Radioligand binding ([3H]-spiperone) to membranes of HEK-293 EBNA cells expressing human D2 receptor; conditions: human D2, 0.7 nM [3H]-spiperone, HEK-293 EBNA membranes, 1 h at RT
T3 construct: expressed in transfected cells; host or cells: HEK-293 EBNA cells, transient transfection; membrane preparation
T3 sequence (P14416 whole entry): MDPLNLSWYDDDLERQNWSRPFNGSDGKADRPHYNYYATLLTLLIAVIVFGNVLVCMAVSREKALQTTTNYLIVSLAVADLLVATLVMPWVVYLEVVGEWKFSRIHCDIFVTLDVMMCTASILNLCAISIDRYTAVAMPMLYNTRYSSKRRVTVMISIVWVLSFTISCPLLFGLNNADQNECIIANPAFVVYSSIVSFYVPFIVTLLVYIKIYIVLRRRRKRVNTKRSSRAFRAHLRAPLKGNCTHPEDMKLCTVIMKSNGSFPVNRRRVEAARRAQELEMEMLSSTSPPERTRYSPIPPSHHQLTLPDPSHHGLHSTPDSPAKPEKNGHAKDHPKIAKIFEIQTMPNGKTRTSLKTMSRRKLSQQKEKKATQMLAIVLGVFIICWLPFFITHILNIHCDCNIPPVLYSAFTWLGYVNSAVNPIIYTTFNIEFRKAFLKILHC
Description: as §1, §2, §3, §4, §5, §6, §7

T1 sequence (P28223 whole entry): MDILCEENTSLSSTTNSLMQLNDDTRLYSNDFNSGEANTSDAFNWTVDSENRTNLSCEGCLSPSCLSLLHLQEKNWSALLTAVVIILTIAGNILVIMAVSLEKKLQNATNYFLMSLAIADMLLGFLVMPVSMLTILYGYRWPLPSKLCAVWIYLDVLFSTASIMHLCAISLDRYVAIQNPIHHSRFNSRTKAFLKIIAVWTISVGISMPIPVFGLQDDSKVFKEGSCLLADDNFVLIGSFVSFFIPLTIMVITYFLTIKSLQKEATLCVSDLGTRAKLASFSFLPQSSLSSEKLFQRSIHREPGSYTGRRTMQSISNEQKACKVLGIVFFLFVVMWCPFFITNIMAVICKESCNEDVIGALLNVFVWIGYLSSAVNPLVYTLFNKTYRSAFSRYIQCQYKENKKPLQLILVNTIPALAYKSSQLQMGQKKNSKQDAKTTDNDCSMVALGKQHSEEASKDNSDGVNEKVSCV

Row | SMILES | Ki [1] [µM] | Ki [2] [µM] | Ki [3] [µM]
1 | CC(=O)N[C@H]1CC[C@H](CCN2CCN(c3noc4ccccc34)CC2)CC1 [Example 2, N-trans-{4-[2-(4-benzo[d]isoxazol-3-yl-piperazin-1-yl)-ethyl]-cyclohexyl}-acetamide] | 0.00496 | 0.00888 | 0.272
2 | O=C(CO)N[C@H]1CC[C@H](CCN2CCN(c3noc4ccccc34)CC2)CC1 [Example 4, N-trans-{4-[2-(4-Benzo[d]isoxazol-3-yl-piperazin-1-yl)-ethyl]-cyclohexyl}-2-hydroxy-acetamide] | 0.00336 | 0.0165 | 0.517
3 | COCCC(=O)N[C@H]1CC[C@H](CCN2CCN(c3noc4ccc(F)cc34)CC2)CC1 [Example 5, N-trans-(4-{2-{4-(5-Fluoro-benzo[d]isoxazol-3-yl)-piperazin-1-yl]-ethyl}-cyclohexyl)-3-methoxy-propionamide] | 0.0316 | 0.00256 | 0.725
4 | CO[C@H]1CC[C@H](CC(=O)N[C@H]2CC[C@H](CCN3CCN(c4noc5ccc(F)cc45)CC3)CC2)CC1 [Example 6, N-trans-(4-{2-[4-(5-Fluoro-benzo[d]isoxazol-3-yl)-piperazin-1-yl]-ethyl}-cyclohexyl)-2-trans-(4-methoxy-cyclohexyl)-acetamide] | 0.0263 | 0.00644 | 11.8
5 | O=C(N[C@H]1CC[C@H](CCN2CCN(c3noc4ccc(F)cc34)CC2)CC1)C1CCOCC1 [Example 7, Tetrahydro-pyran-4-carboxylic acid-trans-(4-{2-[4-(5-fluoro-benzo[d]isoxazol-3-yl)-piperazin-1-yl]-ethyl}-cyclohexyl)-amide] | 0.0138 | 0.0116 | 0.654
6 | O=C(CC1CCOCC1)N[C@H]1CC[C@H](CCN2CCN(c3noc4ccc(F)cc34)CC2)CC1 [Example 8, N-trans-(4-{2-[4-(5-Fluoro-benzo[d]isoxazol-3-yl)-piperazin-1-yl]-ethyl}-cyclohexyl)-2-(tetrahydro-pyran-4-yl)-acetamide] | 0.0272 | 0.00771 | 1.71
7 | COCC(=O)N[C@H]1CC[C@H](CCN2CCN(c3noc4ccc(F)cc34)CC2)CC1 [Example 9, N-trans-(4-{2-[4-(5-Fluoro-benzo[d]isoxazol-3-yl)-piperazin-1-yl]-ethyl}-cyclohexyl)-2-methoxy-acetamide] | 0.0233 | 0.00749 | 1.86
8 | CC(C)(O)CC(=O)N[C@H]1CC[C@H](CCN2CCN(c3noc4ccc(F)cc34)CC2)CC1 [Example 11, N-trans-(4-{2-[4-(5-Fluoro-benzo[d]isoxazol-3-yl)-piperazin-1-yl]-ethyl}-cyclohexyl)-3-hydroxy-3-methyl-butyramide] | 0.024 | 0.00482 | 0.482
9 | CCOCC(=O)N[C@H]1CC[C@H](CCN2CCN(c3noc4ccc(F)cc34)CC2)CC1 [Example 12, 2-Ethoxy-N-trans-(4-{2-[4-(5-fluoro-benzo[d]isoxazol-3-yl)-piperazin-1-yl]-ethyl}-cyclohexyl)-acetamide] | 0.0235 | 0.0156 | 1.39
10 | COC1CCC(C(=O)N[C@H]2CC[C@H](CCN3CCN(c4noc5ccc(F)cc45)CC3)CC2)CC1 (stereo partly drawn) [Example 13, 4-Methoxy-cyclohexanecarboxylic acid N-trans-(4-{2-[4-(5-fluoro-benzo[d]isoxazol-3-yl)-piperazin-1-yl]-ethyl}-cyclohexyl)-amide] | 0.0351 | 0.0414 | 3.44
11 | CS(=O)(=O)N[C@H]1CC[C@H](CCN2CCN(c3noc4ccc(F)cc34)CC2)CC1 [Example 14, N-trans-(4-{2-[4-(5-Fluoro-benzo[d]isoxazol-3-yl)-piperazin-1-yl]-ethyl}-cyclohexyl)-methanesulfonamide] | 0.0281 | 0.00337 | 1.07
12 | O=C(CC1COCCO1)N[C@H]1CC[C@H](CCN2CCN(c3noc4ccc(F)cc34)CC2)CC1 (stereo partly drawn) [Example 15, 2-[1,4]Dioxan-2-yl-N-trans-(4-{2-[4-(5-fluoro-benzo[d]isoxazol-3-yl)-piperazin-1-yl]-ethyl}-cyclohexyl)-acetamide] | 0.0154 | 0.00634 | 0.752
13 | COC1CCCC(C(=O)N[C@H]2CC[C@H](CCN3CCN(c4noc5ccc(F)cc45)CC3)CC2)C1 (stereo partly drawn) [Example 16, 3-Methoxy-cyclohexanecarboxylic acid N-trans-(4-{2-[4-(5-fluoro-benzo[d]isoxazol-3-yl)-piperazin-1-yl]-ethyl}-cyclohexyl)-amide] | 0.0144 | 0.0214 | 1.44
14 | NC(=O)CC(=O)N[C@H]1CC[C@H](CCN2CCN(c3noc4ccc(F)cc34)CC2)CC1 [Example 17, N-trans-(4-{2-[4-(5-Fluoro-benzo[d]isoxazol-3-yl)-piperazin-1-yl]-ethyl}-cyclohexyl)-malonamide] | 0.0254 | 0.00183 | 0.592
15 | O=C(C[C@H]1C[C@H](CO)C1)N[C@H]1CC[C@H](CCN2CCN(c3noc4ccc(F)cc34)CC2)CC1 [Example 20, N-trans-(4-{2-[4-(5-Fluoro-benzo[d]isoxazol-3-yl)-piperazin-1-yl]-ethyl}-cyclohexyl)-2-trans-(3-hydroxymethyl-cyclobutyl)-acetamide] | 0.0193 | 0.00555 | 0.386
16 | CC1(CC(=O)N[C@H]2CC[C@H](CCN3CCN(c4noc5ccc(F)cc45)CC3)CC2)COC1 [Example 21, N-trans-(4-{2-[4-(5-Fluoro-benzo[d]isoxazol-3-yl)-piperazin-1-yl]-ethyl}-cyclohexyl)-2-(3-methyl-oxetan-3-yl)-acetamide] | 0.0111 | 0.00261 | 0.307
17 | CC1(C)C[C@@H](CC(=O)N[C@H]2CC[C@H](CCN3CCN(c4noc5ccc(F)cc45)CC3)CC2)CCO1 [Example 22, 2-((S)-2,2-Dimethyl-tetrahydro-pyran-4-yl)-N-(4-{2-[4-(5-fluoro-benzo[d]isoxazol-3-yl)-piperazin-1-yl]-ethyl}-cyclohexyl)-acetamide] | 0.0327 | 0.00781 | 1.03
18 | CC1(C)C[C@H](CC(=O)N[C@H]2CC[C@H](CCN3CCN(c4noc5ccc(F)cc45)CC3)CC2)CCO1 [Example 23, 2-((R)-2,2-Dimethyl-tetrahydro-pyran-4-yl)-N-(4-{2-[4-(5-fluoro-benzo[d]isoxazol-3-yl)-piperazin-1-yl]-ethyl}-cyclohexyl)-acetamide] | 0.0268 | 0.00703 | 1.06
19 | O=C(CC1OCCCO1)N[C@H]1CC[C@H](CCN2CCN(c3noc4ccc(F)cc34)CC2)CC1 [Example 24, 2-[1,3]Dioxan-2-yl-N-trans-(4-{2-[4-(5-fluoro-benzo[d]isoxazol-3-yl)-piperazin-1-yl]-ethyl}-cyclohexyl)-acetamide] | 0.0168 | 0.00455 | 1.07
20 | COC1CCN(CC(=O)N[C@H]2CC[C@H](CCN3CCN(c4noc5ccc(F)cc45)CC3)CC2)CC1 [Example 25, N-trans-(4-{2-[4-(5-Fluoro-benzo[d]isoxazol-3-yl)-piperazin-1-yl]-ethyl}-cyclohexyl)-2-(4-methoxy-piperidin-1-yl)-acetamide] | 0.0133 | 0.0141 | 0.496
